# Results as given in ChEMBL document CHEMBL5696442, “Discovery of type II inhibitors of TGFβ-activated kinase 1 (TAK1) and mitogen-activated protein kinase kinase kinase kinase 2 (MAP4K2)” (J Med Chem, 2015).
# Calls of active or inactive are those of the source. No cut-off for these calls is given here.
# Columns and labels:
# [1] = biological target: Mitogen-activated protein kinase 9 (Homo sapiens, UniProt P45984); assay: Inhibition of JNK2 (unknown origin) at 10 uM by Ambit Kinomescan binding assay relative to control
# [2] = biological target: Rho-associated protein kinase 2 (Homo sapiens) (UniProt O75116); assay: Inhibition of ROCK2 Lys2 labeling site in human A-375 cells at 0.05 uM by KiNativ Profiling analysis relative to control; type: cell-based
# [3] = biological target: T1, Eukaryotic translation initiation factor 2-alpha kinase 3 (Homo sapiens) (UniProt Q9NZJ5); assay: Inhibition of PEK K2 labeling site in human Huh-7 cells at 1 uM by KiNativ Profiling analysis relative to control; type: cell-based
# T1 sequence (whole entry): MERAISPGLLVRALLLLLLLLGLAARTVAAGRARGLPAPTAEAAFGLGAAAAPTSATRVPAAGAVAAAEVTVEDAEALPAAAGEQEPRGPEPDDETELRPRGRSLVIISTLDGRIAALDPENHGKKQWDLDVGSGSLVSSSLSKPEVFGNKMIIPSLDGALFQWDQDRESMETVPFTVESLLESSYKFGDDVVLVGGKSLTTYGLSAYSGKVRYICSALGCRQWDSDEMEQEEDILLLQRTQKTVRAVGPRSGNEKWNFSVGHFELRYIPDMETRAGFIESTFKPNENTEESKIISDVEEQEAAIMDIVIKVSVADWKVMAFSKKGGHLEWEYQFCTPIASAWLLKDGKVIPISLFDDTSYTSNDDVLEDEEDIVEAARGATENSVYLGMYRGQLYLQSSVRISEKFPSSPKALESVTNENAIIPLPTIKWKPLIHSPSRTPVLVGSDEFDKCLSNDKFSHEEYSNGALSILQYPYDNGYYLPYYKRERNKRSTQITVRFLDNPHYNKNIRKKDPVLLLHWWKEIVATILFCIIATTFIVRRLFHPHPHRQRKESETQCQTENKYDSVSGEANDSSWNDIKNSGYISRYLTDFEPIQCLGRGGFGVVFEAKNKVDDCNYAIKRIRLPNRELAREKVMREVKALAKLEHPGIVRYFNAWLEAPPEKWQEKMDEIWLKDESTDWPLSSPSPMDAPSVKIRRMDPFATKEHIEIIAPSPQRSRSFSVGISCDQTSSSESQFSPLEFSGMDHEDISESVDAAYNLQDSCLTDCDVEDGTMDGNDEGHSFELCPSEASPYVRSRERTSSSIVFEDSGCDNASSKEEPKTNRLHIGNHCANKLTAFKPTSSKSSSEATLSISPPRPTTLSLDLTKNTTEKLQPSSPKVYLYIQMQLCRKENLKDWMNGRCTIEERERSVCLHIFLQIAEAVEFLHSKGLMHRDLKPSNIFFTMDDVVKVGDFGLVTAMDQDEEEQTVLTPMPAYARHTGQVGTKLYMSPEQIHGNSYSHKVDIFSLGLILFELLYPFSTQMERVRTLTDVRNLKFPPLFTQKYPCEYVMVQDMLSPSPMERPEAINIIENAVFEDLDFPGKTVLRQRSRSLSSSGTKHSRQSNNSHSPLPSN
# [4] = biological target: Peripheral plasma membrane protein CASK (Homo sapiens) (UniProt O14936); assay: Inhibition of CASK Lys1 labeling site in human Huh-7 cell lysate at 1 uM by KiNativ Profiling analysis relative to control
# [5] = biological target: RAF proto-oncogene serine/threonine-protein kinase (Homo sapiens, UniProt P04049); assay: Inhibition of RAF1 (unknown origin) at 1 uM by Ambit Kinomescan binding assay relative to control
# [6] = biological target: TRAF2 and NCK-interacting protein kinase (Homo sapiens) (UniProt Q9UKE5); assay: Inhibition of TNIK (unknown origin) at 1 uM by Ambit Kinomescan binding assay relative to control
# [7] = biological target: T2, Serine/threonine-protein kinase TAO3 (Homo sapiens) (UniProt Q9H2K8); assay: Inhibition of TAO3 Lys2 labeling site in human A-375 cells at 5 uM by KiNativ Profiling analysis relative to control; type: cell-based
# T2 sequence (whole entry): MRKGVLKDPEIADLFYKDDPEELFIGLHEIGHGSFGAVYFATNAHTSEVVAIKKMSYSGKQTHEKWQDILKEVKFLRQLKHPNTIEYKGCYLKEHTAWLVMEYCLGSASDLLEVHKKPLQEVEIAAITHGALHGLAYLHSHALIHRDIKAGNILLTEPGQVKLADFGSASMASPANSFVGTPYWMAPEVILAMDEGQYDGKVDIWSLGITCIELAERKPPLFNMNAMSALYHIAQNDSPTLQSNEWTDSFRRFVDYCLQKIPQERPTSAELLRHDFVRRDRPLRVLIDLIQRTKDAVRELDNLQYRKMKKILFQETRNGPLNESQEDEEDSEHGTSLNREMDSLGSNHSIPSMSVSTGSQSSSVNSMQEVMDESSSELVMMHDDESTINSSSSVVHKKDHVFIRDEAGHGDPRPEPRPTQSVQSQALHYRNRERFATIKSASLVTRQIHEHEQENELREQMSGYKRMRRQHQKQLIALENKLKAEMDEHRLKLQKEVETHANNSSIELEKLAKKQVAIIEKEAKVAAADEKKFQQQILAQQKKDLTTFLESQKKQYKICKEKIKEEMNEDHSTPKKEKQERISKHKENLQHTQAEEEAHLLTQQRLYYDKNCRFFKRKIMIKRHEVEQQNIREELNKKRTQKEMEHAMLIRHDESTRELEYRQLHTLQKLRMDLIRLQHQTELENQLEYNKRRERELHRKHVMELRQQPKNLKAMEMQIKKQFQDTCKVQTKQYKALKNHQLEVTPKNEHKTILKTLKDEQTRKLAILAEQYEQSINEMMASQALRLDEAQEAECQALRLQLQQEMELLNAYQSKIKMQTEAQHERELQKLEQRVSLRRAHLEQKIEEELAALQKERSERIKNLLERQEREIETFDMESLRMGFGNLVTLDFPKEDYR
# [8] = biological target: Wee1-like protein kinase (Homo sapiens) (UniProt P30291); assay: Inhibition of Wee1 Lys2 labeling site in human A-375 cells at 5 uM by KiNativ Profiling analysis relative to control; type: cell-based
# [9] = biological target: Epithelial discoidin domain-containing receptor 1 (Homo sapiens) (UniProt Q08345); assay: Inhibition of DDR1 (unknown origin) at 1 uM by Ambit Kinomescan binding assay relative to control; values are per cent of control
# Chain of Epithelial discoidin domain-containing receptor 1 (Homo sapiens) (Q08345 whole entry, the tested form may be a part): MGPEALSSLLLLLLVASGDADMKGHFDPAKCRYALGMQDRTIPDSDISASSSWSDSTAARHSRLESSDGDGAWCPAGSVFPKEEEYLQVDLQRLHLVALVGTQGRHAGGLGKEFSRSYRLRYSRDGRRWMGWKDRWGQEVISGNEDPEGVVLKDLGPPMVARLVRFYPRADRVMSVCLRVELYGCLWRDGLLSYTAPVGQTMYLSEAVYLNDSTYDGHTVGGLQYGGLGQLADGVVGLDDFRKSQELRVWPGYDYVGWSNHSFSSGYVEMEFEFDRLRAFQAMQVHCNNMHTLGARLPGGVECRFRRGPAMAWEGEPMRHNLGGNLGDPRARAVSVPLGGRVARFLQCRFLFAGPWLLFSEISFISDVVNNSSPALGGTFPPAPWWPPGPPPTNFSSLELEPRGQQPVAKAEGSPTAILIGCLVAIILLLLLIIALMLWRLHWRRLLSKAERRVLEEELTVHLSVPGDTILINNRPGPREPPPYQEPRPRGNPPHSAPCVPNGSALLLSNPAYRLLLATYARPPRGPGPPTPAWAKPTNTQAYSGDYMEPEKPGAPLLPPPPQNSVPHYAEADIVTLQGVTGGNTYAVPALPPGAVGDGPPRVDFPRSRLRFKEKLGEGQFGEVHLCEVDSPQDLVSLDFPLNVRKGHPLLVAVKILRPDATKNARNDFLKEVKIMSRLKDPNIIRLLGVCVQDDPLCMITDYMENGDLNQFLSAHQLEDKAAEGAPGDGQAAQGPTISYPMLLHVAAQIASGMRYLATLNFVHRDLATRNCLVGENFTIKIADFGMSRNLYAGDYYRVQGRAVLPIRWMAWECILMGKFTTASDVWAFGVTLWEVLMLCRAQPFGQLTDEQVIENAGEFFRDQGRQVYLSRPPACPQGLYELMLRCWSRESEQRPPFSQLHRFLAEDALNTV
# Chain of Wee1-like protein kinase (Homo sapiens) (P30291 whole entry, looked up, the tested form may be a part): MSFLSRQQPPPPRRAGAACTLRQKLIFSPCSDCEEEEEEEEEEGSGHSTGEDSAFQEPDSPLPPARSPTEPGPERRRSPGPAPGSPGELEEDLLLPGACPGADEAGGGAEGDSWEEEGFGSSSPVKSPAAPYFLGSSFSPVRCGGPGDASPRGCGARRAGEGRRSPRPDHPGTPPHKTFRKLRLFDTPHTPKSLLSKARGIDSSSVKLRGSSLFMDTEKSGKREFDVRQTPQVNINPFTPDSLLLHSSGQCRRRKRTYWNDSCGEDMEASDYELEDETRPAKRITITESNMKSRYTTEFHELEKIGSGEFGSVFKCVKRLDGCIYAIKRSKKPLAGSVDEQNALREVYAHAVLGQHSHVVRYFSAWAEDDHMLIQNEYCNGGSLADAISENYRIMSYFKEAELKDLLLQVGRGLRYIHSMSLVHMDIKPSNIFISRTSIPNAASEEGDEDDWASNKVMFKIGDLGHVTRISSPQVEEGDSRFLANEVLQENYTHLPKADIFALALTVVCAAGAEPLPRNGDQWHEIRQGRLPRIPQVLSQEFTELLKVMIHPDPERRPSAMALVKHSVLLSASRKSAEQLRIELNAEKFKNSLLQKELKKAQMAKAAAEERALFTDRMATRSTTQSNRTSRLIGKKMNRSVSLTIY
# Chain of RAF proto-oncogene serine/threonine-protein kinase (P04049 whole entry): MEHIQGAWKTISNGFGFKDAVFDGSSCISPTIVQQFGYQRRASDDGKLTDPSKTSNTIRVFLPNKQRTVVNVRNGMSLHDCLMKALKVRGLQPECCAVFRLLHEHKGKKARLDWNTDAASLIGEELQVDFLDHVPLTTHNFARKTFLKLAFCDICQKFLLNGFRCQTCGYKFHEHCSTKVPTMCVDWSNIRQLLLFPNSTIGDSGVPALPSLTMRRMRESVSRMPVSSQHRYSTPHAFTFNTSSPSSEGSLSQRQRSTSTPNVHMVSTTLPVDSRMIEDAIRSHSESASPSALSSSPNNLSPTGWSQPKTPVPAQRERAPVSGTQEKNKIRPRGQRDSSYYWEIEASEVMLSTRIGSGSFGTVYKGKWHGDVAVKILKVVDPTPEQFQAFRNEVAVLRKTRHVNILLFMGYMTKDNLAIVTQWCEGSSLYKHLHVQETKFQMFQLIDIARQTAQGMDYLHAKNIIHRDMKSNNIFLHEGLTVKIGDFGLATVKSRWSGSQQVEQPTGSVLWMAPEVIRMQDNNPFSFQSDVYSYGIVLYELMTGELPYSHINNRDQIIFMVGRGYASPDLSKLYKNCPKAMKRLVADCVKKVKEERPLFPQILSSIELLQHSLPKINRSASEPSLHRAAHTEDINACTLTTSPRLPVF
# Chain of Mitogen-activated protein kinase 9 (P45984 whole entry, looked up): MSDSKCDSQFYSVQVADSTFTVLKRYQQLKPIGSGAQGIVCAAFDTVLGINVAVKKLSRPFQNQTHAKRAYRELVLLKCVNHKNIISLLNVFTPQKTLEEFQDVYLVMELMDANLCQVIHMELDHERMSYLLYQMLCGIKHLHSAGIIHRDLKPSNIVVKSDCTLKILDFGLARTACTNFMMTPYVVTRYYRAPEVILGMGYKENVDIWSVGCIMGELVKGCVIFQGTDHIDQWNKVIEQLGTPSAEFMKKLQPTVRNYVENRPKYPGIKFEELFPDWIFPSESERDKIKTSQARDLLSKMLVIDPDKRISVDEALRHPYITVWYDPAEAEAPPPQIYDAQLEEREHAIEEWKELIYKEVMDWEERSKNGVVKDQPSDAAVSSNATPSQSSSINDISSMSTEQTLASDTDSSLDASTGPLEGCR
# Chain of TRAF2 and NCK-interacting protein kinase (Homo sapiens) (Q9UKE5 whole entry, looked up): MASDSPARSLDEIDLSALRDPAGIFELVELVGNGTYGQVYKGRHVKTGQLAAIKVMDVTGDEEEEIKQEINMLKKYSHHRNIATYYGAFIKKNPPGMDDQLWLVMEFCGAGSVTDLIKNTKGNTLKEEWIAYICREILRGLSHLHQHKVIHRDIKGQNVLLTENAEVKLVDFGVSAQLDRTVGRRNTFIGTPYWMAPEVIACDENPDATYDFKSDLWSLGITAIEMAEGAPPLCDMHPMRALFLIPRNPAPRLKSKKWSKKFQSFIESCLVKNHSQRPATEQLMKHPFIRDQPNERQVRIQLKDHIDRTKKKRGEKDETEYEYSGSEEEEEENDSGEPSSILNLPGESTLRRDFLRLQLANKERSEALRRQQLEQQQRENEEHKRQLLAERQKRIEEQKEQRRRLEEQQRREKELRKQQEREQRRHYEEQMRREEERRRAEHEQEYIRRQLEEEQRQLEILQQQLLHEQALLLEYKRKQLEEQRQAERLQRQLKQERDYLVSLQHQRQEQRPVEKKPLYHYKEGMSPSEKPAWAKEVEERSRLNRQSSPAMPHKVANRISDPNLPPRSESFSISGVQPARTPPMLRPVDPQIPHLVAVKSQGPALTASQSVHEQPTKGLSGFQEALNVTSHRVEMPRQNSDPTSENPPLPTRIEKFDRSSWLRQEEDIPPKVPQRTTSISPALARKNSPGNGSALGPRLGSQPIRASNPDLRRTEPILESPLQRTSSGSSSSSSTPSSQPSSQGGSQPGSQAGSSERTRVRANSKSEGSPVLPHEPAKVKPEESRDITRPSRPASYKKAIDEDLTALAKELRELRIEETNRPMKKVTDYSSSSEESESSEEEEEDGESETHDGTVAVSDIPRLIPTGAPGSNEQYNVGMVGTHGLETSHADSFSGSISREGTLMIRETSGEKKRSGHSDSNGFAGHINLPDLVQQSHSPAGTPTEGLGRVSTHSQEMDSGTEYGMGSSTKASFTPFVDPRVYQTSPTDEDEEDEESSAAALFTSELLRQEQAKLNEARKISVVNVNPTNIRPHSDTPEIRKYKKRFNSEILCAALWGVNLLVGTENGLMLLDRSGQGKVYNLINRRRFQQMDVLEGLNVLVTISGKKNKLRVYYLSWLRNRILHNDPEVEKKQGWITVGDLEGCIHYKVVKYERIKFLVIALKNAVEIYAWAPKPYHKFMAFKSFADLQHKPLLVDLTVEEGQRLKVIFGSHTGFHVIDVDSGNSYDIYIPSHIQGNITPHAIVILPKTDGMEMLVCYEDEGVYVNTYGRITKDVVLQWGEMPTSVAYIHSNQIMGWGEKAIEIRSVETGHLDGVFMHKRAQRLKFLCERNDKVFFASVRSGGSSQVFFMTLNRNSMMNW
# Chain of Peripheral plasma membrane protein CASK (Homo sapiens) (O14936 whole entry, looked up): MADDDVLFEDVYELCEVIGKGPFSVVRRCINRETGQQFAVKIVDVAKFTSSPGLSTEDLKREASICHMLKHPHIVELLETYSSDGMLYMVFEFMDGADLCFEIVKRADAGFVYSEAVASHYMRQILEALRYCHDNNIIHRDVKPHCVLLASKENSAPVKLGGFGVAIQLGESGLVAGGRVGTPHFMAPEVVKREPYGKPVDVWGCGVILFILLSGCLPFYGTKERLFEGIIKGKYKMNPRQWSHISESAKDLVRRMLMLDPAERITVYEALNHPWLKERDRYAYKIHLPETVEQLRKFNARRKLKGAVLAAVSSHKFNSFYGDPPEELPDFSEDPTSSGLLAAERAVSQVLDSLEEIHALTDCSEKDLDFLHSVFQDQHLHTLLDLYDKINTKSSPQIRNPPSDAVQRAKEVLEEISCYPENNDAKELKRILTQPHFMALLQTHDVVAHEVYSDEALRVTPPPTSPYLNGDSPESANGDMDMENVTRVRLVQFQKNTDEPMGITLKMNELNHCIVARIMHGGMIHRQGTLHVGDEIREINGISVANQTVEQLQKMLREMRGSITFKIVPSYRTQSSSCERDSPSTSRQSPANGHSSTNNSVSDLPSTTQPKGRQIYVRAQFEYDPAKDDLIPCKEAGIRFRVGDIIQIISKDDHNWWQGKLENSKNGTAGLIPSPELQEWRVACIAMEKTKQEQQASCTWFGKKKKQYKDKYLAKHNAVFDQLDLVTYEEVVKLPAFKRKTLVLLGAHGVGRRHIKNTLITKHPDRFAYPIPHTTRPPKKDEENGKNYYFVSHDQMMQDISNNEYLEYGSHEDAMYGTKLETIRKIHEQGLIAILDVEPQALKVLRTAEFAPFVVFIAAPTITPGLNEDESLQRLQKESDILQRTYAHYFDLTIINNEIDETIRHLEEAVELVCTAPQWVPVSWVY
compound,measurement,setting,value
CCN1CCN(Cc2ccc(NC(=O)c3ccc(C)c(Oc4ccnc5[nH]ccc45)c3)cc2C(F)(F)F)CC1,inhibition,[1],0%
same,inhibition,[2],6%
same,inhibition,[3],inactive
CNc1cc(Oc2cc(C(=O)Nc3cc(N4CCN(C)CC4)cc(C(F)(F)F)c3)ccc2C)ncn1,inhibition,[4],-8.9%
CCN1CCN(Cc2ccc(NC(=O)c3ccc(C)c(/C=C/c4cnc5[nH]ccc5c4OC)c3)cc2C(F)(F)F)CC1,inhibition,[5],7.8%
same,inhibition,[6],14%
same,inhibition,[7],66.2%
same,inhibition,[8],-0.1%
same,% of control,[9],0.05%
